{"source": "patent US6908905B2", "about": "“N-substituted pyrazole-O-glycoside derivatives and therapeutic agent for diabetes containing the same” (Ajinomoto Co., Inc., priority 2001, dated 2005)", "key": {"rat": {"system": "rat", "conditions": "oral administration, increase of sugar excreted in urine, decrease of blood sugar; cited from earlier work"}, "male Wistar rats": {"system": "male Wistar rats", "experiment": "Evaluation of effect on urinary excretion of sugar in rats (Example 8)", "format": "in vivo", "conditions": "rat, oral, 24 hours", "procedure": "Five-week-old male Wistar rats (purchased from Charles River Japan, Inc.) were housed in metabolic cages for about one week prior to the experiment. A test compound was suspended in olive oil, so that solutions of the compound with concentrations of […] were prepared to have a dose of 5 ml/kg body weight of the rat. After the rats were not fed for 4 hours, the test compound was orally administered to the rats at a dosage of 10, 30 and 100 mg/kg at 11 a.m. Urine of the rat was collected for a given period of time from the time immediately after the administration to 24 hours after the administration, and the urine volume was measured. Subsequently, the glucose concentration in urine was determined by the glucose oxidase method and the daily amount of glucose excreted in urine per individual was calculated.\nAs the positive control compound, 3-(benzo[b]furan-5-yl)-2′,6′-dihydroxy-4′-methylpropiophenone 2′-O-(6-O-methoxycarbonyl-β-D-glucopyranoside) was used."}}}
{"smiles": "COC(=O)OC[C@H]1O[C@@H](Oc2cc(C)cc(O)c2C(=O)CCc2ccc3occc3c2)[C@H](O)[C@@H](O)[C@@H]1O", "note": "[Positive Control Compound, 3-(benzo[b]furan-5-yl)-2′,6′-dihydroxy-4′-methylpropiophenone 2′-O-(6-O-methoxycarbonyl-β-D-glucopyranoside)]", "values": [{"measurement": "dose needed to exhibit the efficacy", "setting": "rat", "value": 100, "unit": "mg/kg"}, {"measurement": "The amount of glucose excreted in urine", "setting": "male Wistar rats; 10 mg/kg", "value": 2, "unit": "mg"}, {"measurement": "The amount of glucose excreted in urine", "setting": "male Wistar rats; 30 mg/kg", "value": 78, "unit": "mg"}, {"measurement": "The amount of glucose excreted in urine", "setting": "male Wistar rats; 100 mg/kg", "value": 274, "unit": "mg"}]}
